Source: ChEMBL document CHEMBL4321825, “Discovery of a Series of 5-Azaquinazolines as Orally Efficacious IRAK4 Inhibitors Targeting MyD88L265P Mutant Diffuse Large B Cell Lymphoma” (J Med Chem, 2019)
Values after ≈ are worked out from the molar mass of the structure shown. Values belong to the molecule of their own block, whether it stands above or below them. Active and inactive are the calls of the source. No cut-off for these calls is given here.

How the values were obtained:
[1] = Intrinsic permeability in human Caco2 cells; type: ADME, cell-based; settings: Caco-2
[2] = Plasma clearance in Han Wistar rat at 1 mg/kg, iv; type: ADME, organism-based
[3] = Lipophilicity, logD of the compound at pH 7.4 by shake-flask assay; type: physicochemical; settings: buffer
[4] = molecular target: Interleukin-1 receptor-associated kinase 1 (Homo sapiens, UniProt P51617); test: Inhibition of IRAK1 (unknown origin)
[5] = molecular target: Dual specificity protein kinase CLK4 (Homo sapiens, UniProt Q9HAZ1); test: Inhibition of human recombinant CLK4 expressed in Baculovirus system
[6] = Intrinsic clearance in human hepatocytes assessed per million cells; type: ADME, cell-based, Hepatocyte; settings: read-out: CLH
[7] = molecular target: Cyclin-dependent kinase 7 (Homo sapiens, UniProt P50613); test: Inhibition of CDK7 (unknown origin)
[8] = molecular target: Casein kinase I isoform gamma-1 (Homo sapiens) (UniProt Q9HCP0); test: Inhibition of CK1g1 (unknown origin) at 1 uM relative to control
[9] = molecular target: Mitogen-activated protein kinase kinase kinase 9 (Homo sapiens) (UniProt P80192); test: Inhibition of MLK1 (unknown origin) at 1 uM relative to control
OCI-Ly10 [10] = test: Antitumor activity against human OCI-LY10 cells xenografted in CB.17 SCID mouse assessed as induction of tumor regression at 50 mg/kg, po QD dosed 34 days after tumor cell inoculation and co-treated with 12 mg/kg, po QD ibrutinib; type: functional, organism-based
[11] = molecular target: T1, Cyclin-dependent kinase 9 (Homo sapiens, UniProt P50750); test: Inhibition of CDK9 (unknown origin)
[12] = Oral bioavailability in rat at 1 mg/kg; type: ADME, organism-based; settings: in vivo
[13] = molecular target: Dual specificity protein kinase CLK2 (Homo sapiens, UniProt P49760); test: Inhibition of human recombinant CLK2 expressed in Baculovirus system
[14] = Oral bioavailability in Han Wistar rat at 2 mg/kg; type: ADME, organism-based; settings: in vivo
CDK8/Cyclin C = CDK8/Cyclin C (Homo sapiens, UniProt P49336); test: Inhibition of human recombinant CDK8/cyclinC expressed in Baculovirus system
[15] = molecular target: Dual specificity protein kinase CLK3 (Homo sapiens, UniProt P49761); test: Inhibition of human recombinant CLK3 expressed in Baculovirus system
[16] = Unbound fraction in mouse plasma at 37 degC by equilibrium dialysis; type: ADME, cell-free
[17] = AUC in SCID mouse at 50 mg/kg, po; type: ADME, organism-based; settings: in vivo
[18] = Clearance in rat at 0.5 mg/kg, iv; type: ADME, organism-based; settings: in vivo
OCI-Ly10 [19] = test: Antitumor activity against human OCI-LY10 cells xenografted in CB.17 SCID mouse assessed as inhibition of tumor growth at 50 mg/kg, po QD dosed 34 days after tumor cell inoculation; type: functional, organism-based
[20] = molecular target: T1, Cyclin-dependent kinase 9; test: Inhibition of CDK9 (unknown origin) at 1 uM relative to control
[21] = Aqueous solubility in pH 7.4 phosphate buffer; type: physicochemical
[22] = Unbound fraction in rat plasma at 37 degC by equilibrium dialysis; type: ADME, cell-free
[23] = Volume of distribution at steady state in Han Wistar rat at 1 mg/kg, iv; type: ADME, organism-based; settings: in vivo, read-out: Vdss
[24] = Unbound fraction in human plasma at 37 degC by equilibrium dialysis; type: ADME, cell-free
[25] = molecular target: T2, Serine/threonine-protein kinase ULK2 (Homo sapiens) (UniProt Q8IYT8); test: Inhibition of ULK2 (unknown origin) at 1 uM relative to control
T2 sequence (whole entry): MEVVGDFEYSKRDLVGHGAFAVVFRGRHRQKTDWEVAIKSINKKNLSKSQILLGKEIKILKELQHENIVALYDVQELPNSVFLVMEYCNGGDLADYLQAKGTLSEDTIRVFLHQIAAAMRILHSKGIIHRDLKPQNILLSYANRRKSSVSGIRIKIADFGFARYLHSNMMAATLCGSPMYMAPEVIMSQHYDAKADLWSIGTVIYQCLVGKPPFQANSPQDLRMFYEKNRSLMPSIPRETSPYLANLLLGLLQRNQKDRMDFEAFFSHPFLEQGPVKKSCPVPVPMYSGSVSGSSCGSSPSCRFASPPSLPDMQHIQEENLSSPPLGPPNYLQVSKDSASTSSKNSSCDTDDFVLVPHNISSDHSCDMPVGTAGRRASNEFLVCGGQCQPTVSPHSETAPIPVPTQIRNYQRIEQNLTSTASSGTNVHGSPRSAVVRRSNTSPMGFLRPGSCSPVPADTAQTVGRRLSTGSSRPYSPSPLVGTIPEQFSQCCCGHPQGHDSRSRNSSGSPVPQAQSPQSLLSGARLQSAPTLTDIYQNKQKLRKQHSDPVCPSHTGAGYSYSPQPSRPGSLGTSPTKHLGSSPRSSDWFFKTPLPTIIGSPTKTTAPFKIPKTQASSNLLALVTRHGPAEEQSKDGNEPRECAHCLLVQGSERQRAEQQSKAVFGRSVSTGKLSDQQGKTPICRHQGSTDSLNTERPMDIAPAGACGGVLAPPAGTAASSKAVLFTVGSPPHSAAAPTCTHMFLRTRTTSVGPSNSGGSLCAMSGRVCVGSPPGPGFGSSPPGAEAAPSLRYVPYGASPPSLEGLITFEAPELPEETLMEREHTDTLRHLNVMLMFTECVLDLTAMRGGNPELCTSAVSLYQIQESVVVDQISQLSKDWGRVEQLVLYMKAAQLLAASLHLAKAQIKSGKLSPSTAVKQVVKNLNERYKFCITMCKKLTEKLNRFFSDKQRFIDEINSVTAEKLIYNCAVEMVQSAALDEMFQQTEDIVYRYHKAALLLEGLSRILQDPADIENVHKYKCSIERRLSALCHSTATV

[26] = molecular target: Dual specificity protein kinase CLK1 (Homo sapiens, UniProt P49759); test: Inhibition of human recombinant CLK1 expressed in Escherichia coli
[27] = Intrinsic clearance in rat hepatocytes assessed per million cells; type: ADME, cell-based, Hepatocyte; settings: read-out: CLH
[28] = molecular target: T3, Interleukin-1 receptor-associated kinase 4 (Homo sapiens, UniProt Q9NWZ3); test: Inhibition of IRAK4 (unknown origin) in presence of 5 mM ATP by enzymatic assay
T3 sequence (Q9NWZ3 whole entry): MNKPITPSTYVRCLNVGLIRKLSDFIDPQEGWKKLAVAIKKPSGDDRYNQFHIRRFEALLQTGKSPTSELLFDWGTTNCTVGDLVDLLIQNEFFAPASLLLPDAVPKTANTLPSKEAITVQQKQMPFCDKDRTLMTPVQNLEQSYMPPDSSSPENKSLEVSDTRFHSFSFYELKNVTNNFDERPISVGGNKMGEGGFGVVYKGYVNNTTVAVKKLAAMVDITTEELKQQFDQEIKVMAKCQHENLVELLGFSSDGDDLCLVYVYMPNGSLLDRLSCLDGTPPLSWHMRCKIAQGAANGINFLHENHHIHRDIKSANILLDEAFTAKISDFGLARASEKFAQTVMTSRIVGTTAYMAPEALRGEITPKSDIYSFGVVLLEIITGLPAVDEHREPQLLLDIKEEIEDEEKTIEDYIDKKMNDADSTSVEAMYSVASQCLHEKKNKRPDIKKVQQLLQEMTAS

[29] = molecular target: T3, Interleukin-1 receptor-associated kinase 4; test: Inhibition of IRAK4 (unknown origin) by cell based assay
[30] = Efflux ratio in human Caco2 cells; type: ADME, cell-based; settings: Caco-2

T1 sequence (P50750 whole entry): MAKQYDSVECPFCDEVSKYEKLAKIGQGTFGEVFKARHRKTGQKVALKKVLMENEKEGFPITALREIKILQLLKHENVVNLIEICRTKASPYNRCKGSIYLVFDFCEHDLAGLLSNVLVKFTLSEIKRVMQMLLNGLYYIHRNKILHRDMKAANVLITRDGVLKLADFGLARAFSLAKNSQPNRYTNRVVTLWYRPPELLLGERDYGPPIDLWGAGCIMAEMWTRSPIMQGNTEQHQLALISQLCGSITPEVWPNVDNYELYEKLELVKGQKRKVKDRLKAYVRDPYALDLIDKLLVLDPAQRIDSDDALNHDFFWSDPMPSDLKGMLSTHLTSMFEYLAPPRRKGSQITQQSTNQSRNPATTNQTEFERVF
Dual specificity protein kinase CLK4, sequence (Q9HAZ1 whole entry): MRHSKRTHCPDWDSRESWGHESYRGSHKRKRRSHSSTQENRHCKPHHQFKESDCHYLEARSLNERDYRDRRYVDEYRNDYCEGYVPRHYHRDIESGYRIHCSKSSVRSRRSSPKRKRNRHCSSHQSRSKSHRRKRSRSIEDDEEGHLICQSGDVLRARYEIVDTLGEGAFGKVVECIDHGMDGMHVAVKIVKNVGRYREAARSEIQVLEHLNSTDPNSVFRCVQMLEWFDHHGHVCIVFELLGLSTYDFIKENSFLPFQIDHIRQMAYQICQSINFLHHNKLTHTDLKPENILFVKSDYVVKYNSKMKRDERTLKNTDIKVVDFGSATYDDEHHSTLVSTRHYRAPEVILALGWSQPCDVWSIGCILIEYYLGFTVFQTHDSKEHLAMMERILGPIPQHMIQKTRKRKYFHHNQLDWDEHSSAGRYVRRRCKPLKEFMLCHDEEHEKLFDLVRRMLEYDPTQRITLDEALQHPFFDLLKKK
Casein kinase I isoform gamma-1 (Homo sapiens), sequence (Q9HCP0 whole entry, looked up, canonical isoform): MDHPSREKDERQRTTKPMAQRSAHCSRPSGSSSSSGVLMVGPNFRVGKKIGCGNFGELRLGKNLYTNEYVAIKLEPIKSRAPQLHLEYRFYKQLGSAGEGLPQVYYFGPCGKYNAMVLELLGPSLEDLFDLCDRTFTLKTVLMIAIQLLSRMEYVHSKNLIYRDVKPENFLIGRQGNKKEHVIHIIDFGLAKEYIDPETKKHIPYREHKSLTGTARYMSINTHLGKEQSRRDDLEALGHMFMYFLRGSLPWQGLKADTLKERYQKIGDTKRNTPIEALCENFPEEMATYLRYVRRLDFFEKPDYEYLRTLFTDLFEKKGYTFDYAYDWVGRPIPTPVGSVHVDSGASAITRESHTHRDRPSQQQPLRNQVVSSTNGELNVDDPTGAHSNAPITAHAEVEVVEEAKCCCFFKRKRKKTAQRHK
CDK8/Cyclin C, sequence (P49336 whole entry): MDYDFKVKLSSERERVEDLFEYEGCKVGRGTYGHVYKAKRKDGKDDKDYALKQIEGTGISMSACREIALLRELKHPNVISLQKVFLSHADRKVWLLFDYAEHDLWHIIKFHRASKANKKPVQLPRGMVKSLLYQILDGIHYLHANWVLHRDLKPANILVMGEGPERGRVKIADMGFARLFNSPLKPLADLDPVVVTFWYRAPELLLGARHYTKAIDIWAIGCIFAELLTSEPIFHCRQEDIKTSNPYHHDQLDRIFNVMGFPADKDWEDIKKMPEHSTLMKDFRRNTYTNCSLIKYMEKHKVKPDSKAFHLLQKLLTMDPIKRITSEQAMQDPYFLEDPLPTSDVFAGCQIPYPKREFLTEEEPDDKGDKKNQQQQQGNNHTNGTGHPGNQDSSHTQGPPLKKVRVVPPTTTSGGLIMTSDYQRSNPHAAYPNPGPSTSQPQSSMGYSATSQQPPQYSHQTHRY
CDK8/Cyclin C, sequence (P24863 whole entry, further chain): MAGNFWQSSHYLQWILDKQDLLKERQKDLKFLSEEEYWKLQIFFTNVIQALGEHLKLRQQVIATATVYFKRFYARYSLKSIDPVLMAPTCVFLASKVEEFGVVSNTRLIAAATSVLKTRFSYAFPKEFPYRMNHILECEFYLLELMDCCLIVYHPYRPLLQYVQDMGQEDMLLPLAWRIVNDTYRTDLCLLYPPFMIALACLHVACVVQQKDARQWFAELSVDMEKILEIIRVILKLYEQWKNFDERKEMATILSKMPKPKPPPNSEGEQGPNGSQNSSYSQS
Dual specificity protein kinase CLK1, sequence (P49759 whole entry): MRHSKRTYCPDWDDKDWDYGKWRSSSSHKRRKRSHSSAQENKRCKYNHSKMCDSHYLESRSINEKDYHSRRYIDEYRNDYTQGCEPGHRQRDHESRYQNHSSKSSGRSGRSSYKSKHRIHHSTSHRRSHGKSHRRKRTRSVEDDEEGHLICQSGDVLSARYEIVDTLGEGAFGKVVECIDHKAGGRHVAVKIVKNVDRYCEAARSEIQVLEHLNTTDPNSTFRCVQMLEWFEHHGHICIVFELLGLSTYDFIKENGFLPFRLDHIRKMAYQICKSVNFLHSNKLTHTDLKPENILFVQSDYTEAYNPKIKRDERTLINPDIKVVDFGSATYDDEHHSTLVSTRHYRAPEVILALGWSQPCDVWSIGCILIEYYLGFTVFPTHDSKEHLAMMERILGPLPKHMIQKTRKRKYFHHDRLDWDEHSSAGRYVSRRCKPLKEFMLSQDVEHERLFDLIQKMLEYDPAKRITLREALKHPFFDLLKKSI
Dual specificity protein kinase CLK2, sequence (P49760 whole entry): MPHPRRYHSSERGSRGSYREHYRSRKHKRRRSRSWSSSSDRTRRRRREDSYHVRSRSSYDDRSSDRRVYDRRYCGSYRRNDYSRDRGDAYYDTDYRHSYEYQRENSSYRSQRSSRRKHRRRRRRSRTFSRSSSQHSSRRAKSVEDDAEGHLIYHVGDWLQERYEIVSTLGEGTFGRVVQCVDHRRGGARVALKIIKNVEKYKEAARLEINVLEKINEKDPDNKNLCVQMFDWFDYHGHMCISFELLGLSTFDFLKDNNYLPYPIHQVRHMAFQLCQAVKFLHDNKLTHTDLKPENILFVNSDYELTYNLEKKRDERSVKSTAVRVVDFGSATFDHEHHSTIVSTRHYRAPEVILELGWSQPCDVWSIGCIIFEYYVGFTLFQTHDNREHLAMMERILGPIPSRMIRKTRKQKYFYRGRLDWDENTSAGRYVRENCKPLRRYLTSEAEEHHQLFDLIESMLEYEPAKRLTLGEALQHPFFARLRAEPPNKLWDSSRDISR
Dual specificity protein kinase CLK3, sequence (P49761 whole entry): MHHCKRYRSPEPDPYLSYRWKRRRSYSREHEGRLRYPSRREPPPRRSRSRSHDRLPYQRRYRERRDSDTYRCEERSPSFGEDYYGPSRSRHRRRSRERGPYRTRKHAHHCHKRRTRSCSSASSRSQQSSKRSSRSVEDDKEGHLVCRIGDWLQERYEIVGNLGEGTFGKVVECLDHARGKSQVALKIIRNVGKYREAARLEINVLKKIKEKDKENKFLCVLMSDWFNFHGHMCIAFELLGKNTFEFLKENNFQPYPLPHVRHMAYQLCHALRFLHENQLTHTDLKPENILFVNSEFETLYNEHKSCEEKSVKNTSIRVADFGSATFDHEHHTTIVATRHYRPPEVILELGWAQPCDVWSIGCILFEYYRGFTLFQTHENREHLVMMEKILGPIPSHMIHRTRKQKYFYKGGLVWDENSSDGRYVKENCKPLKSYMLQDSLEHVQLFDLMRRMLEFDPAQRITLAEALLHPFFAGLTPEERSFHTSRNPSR
Mitogen-activated protein kinase kinase kinase 9 (Homo sapiens), sequence (P80192 whole entry, looked up): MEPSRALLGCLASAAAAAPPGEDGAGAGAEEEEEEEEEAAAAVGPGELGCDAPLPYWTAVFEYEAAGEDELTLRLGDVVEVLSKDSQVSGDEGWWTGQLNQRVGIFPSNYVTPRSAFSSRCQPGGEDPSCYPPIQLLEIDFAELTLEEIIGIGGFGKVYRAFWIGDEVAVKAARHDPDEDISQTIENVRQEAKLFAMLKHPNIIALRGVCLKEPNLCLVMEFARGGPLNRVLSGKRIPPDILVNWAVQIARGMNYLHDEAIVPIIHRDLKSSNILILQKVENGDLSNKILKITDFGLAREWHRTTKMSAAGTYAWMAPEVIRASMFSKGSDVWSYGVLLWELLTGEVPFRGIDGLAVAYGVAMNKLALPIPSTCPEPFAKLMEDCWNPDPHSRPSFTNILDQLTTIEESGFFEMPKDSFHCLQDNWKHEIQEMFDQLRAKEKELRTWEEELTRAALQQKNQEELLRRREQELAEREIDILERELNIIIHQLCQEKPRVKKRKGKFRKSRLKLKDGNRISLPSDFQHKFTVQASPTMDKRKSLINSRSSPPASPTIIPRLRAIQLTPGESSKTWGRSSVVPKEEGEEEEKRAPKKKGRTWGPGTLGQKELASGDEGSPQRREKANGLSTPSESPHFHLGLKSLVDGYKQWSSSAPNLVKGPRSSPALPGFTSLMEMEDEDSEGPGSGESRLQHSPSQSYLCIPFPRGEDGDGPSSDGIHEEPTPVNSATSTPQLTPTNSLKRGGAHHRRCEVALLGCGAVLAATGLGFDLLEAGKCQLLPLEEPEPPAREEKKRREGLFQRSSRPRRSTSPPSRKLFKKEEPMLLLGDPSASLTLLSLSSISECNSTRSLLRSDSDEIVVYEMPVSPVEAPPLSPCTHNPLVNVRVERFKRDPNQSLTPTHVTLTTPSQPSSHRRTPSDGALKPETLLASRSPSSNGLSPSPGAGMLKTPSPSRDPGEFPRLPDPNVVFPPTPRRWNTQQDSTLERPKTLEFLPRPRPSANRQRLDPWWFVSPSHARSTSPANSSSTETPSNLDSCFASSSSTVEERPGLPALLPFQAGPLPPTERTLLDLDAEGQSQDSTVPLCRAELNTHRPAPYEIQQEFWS
Cyclin-dependent kinase 7, sequence (P50613 whole entry, canonical isoform): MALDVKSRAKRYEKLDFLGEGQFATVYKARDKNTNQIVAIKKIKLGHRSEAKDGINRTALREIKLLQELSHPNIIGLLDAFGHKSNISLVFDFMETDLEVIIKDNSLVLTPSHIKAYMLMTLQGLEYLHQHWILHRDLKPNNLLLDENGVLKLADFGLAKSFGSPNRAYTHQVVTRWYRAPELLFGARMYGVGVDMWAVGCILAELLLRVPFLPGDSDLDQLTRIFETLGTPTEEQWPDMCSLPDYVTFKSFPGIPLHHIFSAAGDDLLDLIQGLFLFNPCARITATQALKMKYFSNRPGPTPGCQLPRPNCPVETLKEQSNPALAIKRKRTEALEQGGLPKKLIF

SMILES: COC(=O)N1CCN([C@H]2CC[C@H](Nc3ncnc4ccc(C#N)cc34)CC2)CC1
Papp [1]: 20 ×10⁻⁶ cm/s
clearance [2]: 7.4 mL/min/kg
logD [3]: 2.2
IC50 [4]: 44 nM
IC50 [5]: 610 nM
hepatocyte CLint [6]: < 1 µL/min/1e6 cells
IC50 [7]: 3100 nM
inhibition [8]: 53%
inhibition [9]: 51%
Activity (OCI-Ly10 [10]): Active
IC50 [11]: 370 nM
bioavailability [12]: > 100%
IC50 [13]: 360 nM
bioavailability [14]: > 100%
IC50 (CDK8/Cyclin C): 68 nM
IC50 [15]: > 10000 nM
fraction unbound [16]: 0.28
AUC [17]: 390 µM·h
clearance [18]: 7.4 mL/min/kg
TGI (OCI-Ly10 [19]): Active
inhibition [20]: 84%
solubility [21]: 130 µM (≈ 51.3 µg/mL)
fraction unbound [22]: 0.05
Vd [23]: 1.3 L/kg
fraction unbound [24]: 0.23
inhibition [25]: 58%
IC50 [26]: 1700 nM
hepatocyte CLint [27]: < 1.6 µL/min/1e6 cells

SMILES: COC(=O)N1CCN([C@H]2CC[C@H](Nc3ncnc4ccc(C)nc34)CC2)CC1
Papp [1]: 35 ×10⁻⁶ cm/s
logD [3]: 2
IC50 [28]: 279 nM
hepatocyte CLint [6]: < 1 µL/min/1e6 cells
IC50 [29]: 840 nM
efflux ratio [30]: 0.8
hepatocyte CLint [27]: 5.2 µL/min/1e6 cells

SMILES: N#Cc1ccc2ncnc(N[C@H]3CC[C@H](N4CCOCC4)CC3)c2c1
Papp [1]: 18 ×10⁻⁶ cm/s
logD [3]: 1.6
IC50 [28]: 46 nM
hepatocyte CLint [6]: < 1.2 µL/min/1e6 cells
IC50 [29]: 250 nM
bioavailability [12]: 29%
efflux ratio [30]: 1.6
clearance [18]: 20 mL/min/kg
hepatocyte CLint [27]: 3.4 µL/min/1e6 cells

The remaining molecules from weak to strong by IC50 [28], led by results:

logD [3]: 3.2
IC50 [28]: 17 nM
hepatocyte CLint [6]: 4 µL/min/1e6 cells
IC50 [29]: 61 nM
hepatocyte CLint [27]: 7.3 µL/min/1e6 cells
SMILES: COC(=O)N1CCN([C@H]2CC[C@H](Nc3nc(Nc4cnn(C)c4)nc4ccc(C5(C#N)CC5)nc34)CC2)CC1

Papp [1]: 7.9 ×10⁻⁶ cm/s
logD [3]: 2.6
IC50 [28]: 9 nM
hepatocyte CLint [6]: 13 µL/min/1e6 cells
IC50 [29]: 140 nM
efflux ratio [30]: 0.9
hepatocyte CLint [27]: 10 µL/min/1e6 cells
SMILES: COC(=O)N1CCN([C@H]2CC[C@H](Nc3nc(Nc4cnn(C)c4)nc4ccc(C)nc34)CC2)CC1

logD [3]: 2.6
IC50 [28]: 2 nM
hepatocyte CLint [6]: < 1 µL/min/1e6 cells
IC50 [29]: 59 nM
bioavailability [12]: 5%
efflux ratio [30]: 94
clearance [18]: 31 mL/min/kg
hepatocyte CLint [27]: 18 µL/min/1e6 cells
SMILES: Cn1cc(Nc2nc(N[C@H]3CC[C@H](N4CCOCC4)CC3)c3cc(C#N)ccc3n2)cn1

Papp [1]: < 0.2 ×10⁻⁶ cm/s
logD [3]: 2.3
IC50 [28]: 1 nM
hepatocyte CLint [6]: < 1 µL/min/1e6 cells
IC50 [29]: 400 nM
efflux ratio [30]: 323
clearance [18]: 17 mL/min/kg
hepatocyte CLint [27]: 3.2 µL/min/1e6 cells
SMILES: CC(=O)N1CCN([C@H]2CC[C@H](Nc3nc(Nc4cnn(C)c4)nc4ccc(C#N)cc34)CC2)CC1
